Laboratory results: patent US6995136B1, “Peptide fragments of murine epidermal growth factor as laminin receptor targets” (The Queen's University of Belfast, priority 1998, dated 2006)

Assays:
tumour cells = settings: already known in the field; cited from earlier work
C57-BL/6J mice = experiment: Murine model of proliferative retinopathy (retinopathy of prematurity, ROP); format: in vivo, mouse
Protocol: Litters of 7 day old C57-BL/6J mice, together with their nursing dams, are exposed to 80% oxygen in an incubator maintained at 23° C. and with a gas exchange of 1.5 L/min for 5 days according to the protocol described by Stitt et al. (1998). On postnatal day 12 (P12) the animals are returned to room air and sacrificed at various times posthyperoxia. Animals are treated with daily i.p. injections of either laminin agonists (10 μg per head per day) or vehicle control. Groups of room air controls are maintained in parallel with hyperoxia-exposed animals. Home Office project and personal licenses are held for this work. All animals are housed and maintained in accordance with the ARVO regulations for animal care in research.
Animals are sacrificed at pre-determined key stages in the vaso-obliteration (P7–P12), ischaemia (P12 onwards) and vaso-proliferative responses (P 12–21). At sacrifice, terminally anaesthetised animals have a single eye enucleated and the retina removed to be snap-frozen for later RNA-extraction (see below). The fellow eye is either perfused with fluorescein dextran or enucleated and fixed in 4% paraformaldehyde for histology, immunohistochemistry and in situ hybridisation.

[1] = test system: angiogenesis in the chick; settings: already known in the field; cited from earlier work
[2] = test system: angiogenesis in the chick; experiment: Chick angiogenesis model; format: in vivo; settings: chick
[3] = test system: Endothelial cells (SK HEP-1 and BRCE); experiment: Migration assay (colloidal gold track area); format: cell-based; settings: mammalian cell lines
Protocol: The method used was basically as described by Albrecht-Buehler (1977). Briefly, coverslips (22×22 mm) were treated in 5% detergent (7×; ICN Biomedicals) and washed in alcohol to remove grease. After drying, they were immersed in gelatin solution (Sigma, 300 Bloom; 0.5 g in 300 ml distilled H2O) for 10 min. The coverslips were then dried by placing in a 70° C. oven for 45 min.
Colloidal gold suspension was prepared by adding 11 ml distilled H2O and 6 ml Na2CO3 (36.5 mM) to 1.8 ml AuHCl4 (14.5 mM). The mixture was heated to 95° C. at which point 1.8 ml of freshly prepared 0.1% formaldehyde solution was added; the temperature was maintained at 95° C. A suspension of colloidal gold was formed which was brown to absorbed light and blue to transmitted light.
The gold suspension, was then added to petri dishes containing individual coverslips and the plates incubated at 37° C. for 45 min. After washing with CFS (3×4 ml) to remove unattached gold particles, the coverslips were transferred to 6-well cluster dishes and UV sterilised.
Endothelial cells (SK HEP-1 and BRCE) in culture media (0.3 ml) were seeded onto the coverslips at an approximate density of 5×10^3 cells per well. The cells were allowed to plate down for 2 h at 37° C. after which the treatments were added. Assay systems were maintained for a further 18 h after which the cells were fixed using 3% gluteraldehyde in cacodylate buffer (pH 7.2).
The assays were examined using a Leica DM1RB phase contrast microscope and Q500MC image analysis system incorporating a JVC TK-1280E colour camera (Leica, Milton Keynes, UK). The track images of at least 30 cells were videocaptured and the area (representing migration response) determined for each. Statistical analysis of these areas was then carried out using Macintosh Instat software to perform both Kruskal-Wallis analysis of variance and Mann-Whitney U-tests in order to compare the treatment groups with controls.

[4] = target: T1, 67 kDa laminin receptor (67-LR) (Homo sapiens, UniProt P08865); experiment: 125I-laminin displacement (competition binding) on T47-D or SK HEP-1 cells; settings: relative to mEGF(33-42); 0.1 nM 125I-laminin, overnight 4° C.
T1 construct: endogenous in cells; host or cells: T47-D or SK HEP-1 cells (whole-cell suspension)
Protocol: ^125I-laminin was prepared using ^125I-labelled sodium iodide (Amersham, UK) and immobilised chloramine-T (Iodobeads; Pierce, Ill.). Prior to use, the beads were washed with 500 μl phosphate buffer (pH 6.5) to remove excess reagent from the support. These were then allowed to air dry and individual beads added to a solution of carrier free Na^125I, diluted with iodination buffer (phosphate buffer pH 7.4). The beads were allowed to equilibrate for 5 min.
Laminin (10 μg in 10 μl) was then diluted into the iodination buffer and the system incubated at 20° C. for 15 min. The solution was then removed from the reaction vessel and excess Na^125I and unincorporated ^125I2 separated from the iodinated protein by gel filtration on a GF-5 exclusion column (Pierce, Ill.). Iodinated laminin fractions were recovered at a specific activity of approximately 1.2 mCi/mg protein (864 Ci/mmol).
Near confluent cultures of T47-D or SK HEP-1 cells were removed from monolayer with 0.02% EGTA and passed through a G-25 syringe needle to produce single cell suspensions. Aliquots of each cell type (10^6 cells/ml) were dispensed into separate Ependorf tubes (1 ml each) and pelleted. The cells were then resuspended in 1 ml ice-cold RPMI (SK HEP-1) or DMEM (T47-D) containing 0.1% BSA and either laminin or synthetic peptide at the concentrations indicated. Iodinated laminin was then added to each cell suspension to give a final ^125I-laminin concentration of 0.1 nM (approximately 50,000 cpm). These mixtures were incubated overnight at 4° C.
The tubes were then microfuged at 10,000 g and the supernatant removed. After washing the pellet with 500 μl CFS, the remaining radioactivity was determined using a gamma radiation counter. Non-specific binding was determined by incubating cells with a 1000-fold molar excess of unlabelled laminin. All estimations were carried out in triplicate.
IC50 (concentration of unlabelled peptide required to produce 50% inhibition of radioligand binding) and EC50 (effective concentration for 50% inhibition of cell attachment) values were calculated using the Grafit curve-fitting programme (Erithacus Software, London, UK).

[5] = FIG. 1b versus 1a, 10 μg per head per day i.p.

receptor affinity, 125I-laminin displacement (IC50), in words [4]: equipotent
Sequence: CDPGYIGSR [Lam.β-1(925-933), CDPGYIGSR-NH2, synthetic peptide of amino acids 925–933 of the laminin β-1 chain, 67LR agonist, reference compound]
tumour establishment in mice (tumour cells): inhibit tumour establishment in mice
re-canalisation of areas of vaso-obliteration (C57-BL/6J mice; [5]): promotes re-canalisation of areas of vaso-obliteration
uncontrolled angiogenic response of ROP (C57-BL/6J mice; [5]): prevents the uncontrolled angiogenic response of ROP
development of ROP (C57-BL/6J mice; neonates, daily intraperitoneal injections of 10 μg): development of ROP can be prevented
angiogenesis in the chick [1]: inhibits angiogenesis in the chick
laminin agonist/antagonist character in chick [2]: partial laminin antagonist
67LR agonist/antagonist character in mammalian cell lines [3]: pure agonist
67LR agonist/antagonist character in mammalian cell lines ([3]; listed as laminin β-1925-933): pure 67LR agonist
